# Results reported in US10201580B2, “Methods of feeding animals liquid feed with soluble fiber and sugar alcohol” (PURINA ANIMAL NUTRITION LLC, priority 2004, dated 2019).
# Assays:
# Holstein bull calves [1] = test: Further trial, calf milk replacer without psyllium, with or without sorbitol: scour score and scour days; format: in vivo; conditions: 6 g of sorbitol per day
# From the text: (§1) A further trial was ran to determine what effect sorbitol without a dietary fiber would have on calves fed an intensified diet of calf milk replacer. Forty-six three to ten day old Holstein bull calves weighing approximately 90 to 100 pounds were fed an intensified diet of calf milk replacer. Twenty-four calves were fed a calf milk replacer without psyllium and without sorbitol and twenty-two calves were fed calf milk replacer without psyllium but with sorbitol. […] were fed 6 grams each per day of sorbitol. Data for parameters presented in the Tables above was analyzed using the general linear model (GLM) statistical procedure of SAS™. Statistical analysis software for a randomized complete block design that included both the particular feed regimen and the week of the test period in the model statement. The SAS™ statistical analysis software is available from SAS Institute, Inc. of Cary, N.C. Additionally, all data was analyzed to determine the mean of the data for each variable under consideration during the collection period for the particular data. Additionally, the PDiff function of the GLM statistical procedure was used to characterize the mean values of the data by providing for comparisons between mean data values for the calves of different treatments for particular test parameters or variables.
# Holstein bull calves [2] = test: Further trial, calf milk replacer without psyllium, with or without sorbitol: respiratory scores; format: in vivo; conditions: 6 g per day of sorbitol; no psyllium
# From the text: as §1
# [3] = Further trial, calf milk replacer without psyllium, with or without sorbitol: weight gain, CMR consumption, starter intake, feed:gain; format: in vivo, Holstein bull calves; conditions: 6 g per day of sorbitol
# From the text: as §1
# Holstein bull calves [4] = test: Further trial, calf milk replacer without psyllium, with or without sorbitol: weaning scores; format: in vivo; conditions: 6 g per day of sorbitol; no psyllium
# From the text: as §1
compound,measurement,setting,value
OC[C@@H](O)[C@@H](O)[C@H](O)[C@@H](O)CO [sorbitol],difference in scour score vs calves fed no sorbitol,Holstein bull calves [1],no statistically significant different
same,difference in scoured days vs calves fed no sorbitol,Holstein bull calves [1],no statistically significant different
same,difference in respiratory scores vs calves not fed any sorbitol,Holstein bull calves [2],no statistically significant difference
same,difference in average feed:gain (feed efficiency) vs calves fed no sorbitol,[3],no statistically significant difference
same,difference in calf milk replacer consumption vs calves fed no sorbitol,[3],no statistically significant difference
same,difference in starter feed intake vs calves fed no sorbitol,[3],no statistically significant difference
same,difference in total weight gain vs calves fed no sorbitol,[3],no statistically significant difference
same,difference in weaning scores vs calves not fed any sorbitol,Holstein bull calves [4],no statistically significant difference
